According to US12180174B2, “A2-73 crystalline polymorph compositions of matter and methods of use thereof” (ANAVEX LIFE SCIENCES CORP., priority 2018, dated 2024):
Counter-ions that a name gives are not always drawn. Like-named read-outs stand apart in the source and are kept apart here.

How the values were obtained:
[1] = Solid form stability (storage, drying); assay type: physicochemical
Solubility at defined pH = assay type: physicochemical
[2] = Hygroscopicity / gravimetric vapor sorption (GVS); assay type: physicochemical; details: for water uptake (GVS): 90% RH
Protocol: This is confirmed by gravimetric vapor sorption (GVS) analysis, showing minimal water update (0.3% w/w) up to 90% RH. […] (peak temperature at ca. 91° C.). Upon further heating, Form I appears to sublime, beginning above ca. 120° C. with a weight loss of ca. 99% observed by 212.6° C. ^1H NMR spectra and HPLC-MS results were consistent with the structure of A2-73 freebase. […] FIG. 15 is a […]polarized-light microscopy (PLM) of Freebase Form I. XRPD pattern of Anavex2-73 freebase Form I obtained using copper Ka radiation is shown in FIG. 16.

[3] = pH of a saturated solution; assay type: physicochemical; details: saturated solution in water
Alzheimer's disease = assay: Cognitive function of patients with Alzheimer's disease, transdermal patch; assay type: in vivo, human
Protocol: A person presents with early signs of Alzheimer's disease. They are administered a pharmaceutical composition via transdermal patch containing 100 mg […]2-73 freebase with a 4 cm2 patch replaced approximately every three days administration for 120 days. Blood levels of about 10 ng/ml are being maintained. […] A person presents with signs of early onset Alzheimer's disease. They are administered via a 9 cm2 transdermal patch containing a pharmaceutical composition containing 200 mg […]2-73 freebase with the patch replaced weekly for 180 days. Blood levels of about 12 ng/ml are being maintained.

[4] = Blood levels in patients on extended release dosage forms; assay type: in vivo, human; details: person
Protocol: A person presents with early signs of Alzheimer's disease. They are administered a pharmaceutical composition via transdermal patch containing 100 mg ANAVEX2-73 freebase with a 4 cm2 patch replaced approximately every three days administration for 120 days. Blood levels of about 10 ng/ml are being maintained.
A person presents with signs of early onset Alzheimer's disease. They are administered via a 9 cm2 transdermal patch containing a pharmaceutical composition containing 200 mg ANAVEX2-73 freebase with the patch replaced weekly for 180 days. Blood levels of about 12 ng/ml are being maintained.
A person with unspecified progressive dementia is administered 30 mg of ANAVEX2-73 fumarate in an enteric coated tablet every other day for 180 days. Blood levels reveal about 25 mg per day are being administered.
A person with unspecified progressive dementia is administered 50 mg of ANAVEX2-73 freebase in an enteric coated tablet every other day for 180 days. Blood levels reveal about 20 mg per day are being administered.

[5] = Solvent solubility screen; assay type: physicochemical; details: for solubility: read-out: Approx. Solubility
[6] = tested on: unspecified progressive dementia; assay: Cognitive function of patients with unspecified progressive dementia, enteric coated tablet; assay type: in vivo, human; details: 180 days
Protocol: A person with unspecified progressive dementia is administered 30 mg of […]2-73 fumarate in an enteric coated tablet every other day for 180 days. Blood levels reveal about 25 mg per day are being administered. […] A person with unspecified progressive dementia is administered 50 mg of […]2-73 freebase in an enteric coated tablet every other day for 180 days. Blood levels reveal about 20 mg per day are being administered.

ULK1 = ULK1 serine 555 phosphorylation, Western blot; assay type: cell-based, human; details: 1 μM; HeLa cells
From the text: Activation of the serine/threonine protein kinase ULK1 (unc-51-like kinase 1) via phosphorylation at serine 555 indicates stimulation of the canonical autophagy pathway. […] It has to be mentioned that this activating ULK1 phosphorylation can be inhibited by mTOR as well as stimulated via AMPK kinase. Both are basal physiological sensors of nutritional conditions and key signal transducers of canonical autophagy stimulation. ULK1 is in fact the signal mediating the induction of the formation of the phagophore during the autophagy process and, therefore, a central promoter of autophagy. ULK1 itself functions in a complex with at least three protein partners: FI P200 (focal adhesion kinase family interacting protein of 200 kDa), ATG (autophagy-related protein) 13 (ATG13), and ATG101.
Cell culture and microscopy. HeLa and HEK293A cells were cultured in DMEM (Invitrogen, Carlsbad, CA, USA, 41965062) supplemented with active FBS (Life Technologies GmbH, Carlsbad, CA, USA, 10270106), 1×ABAM (Invitrogen, 15240-062) and 1 mM sodium pyruvate (Invitrogen, 1136-088). […] Proteins were detected by chemiluminescence using the Amersham Imager 600 (GE). Confocal fluorescence microscopical analyses of HEK293A cells stably expressing GFP-LC3B were performed with the laser scanning microscope LSM 710 (Zeiss, Oberkochen).

HeLa cells = assay: LC3-II autophagic flux, Western blot with Bafilomycin A1; assay type: cell-based, human; details: 1 μM, BafiA1 2 μM, vs control
Protocol: To study the effect of ANAVEX2-73 on autophagy, human HeLa cells were treated with the compound and autophagic activity was analyzed by investigating the flux of LC3-II. LC3-II is the lipidated form of LC3, which (partially) stays attached to autophagosomes and thus, gets degraded by lysosomes. Therefore, the quantification of the LC3-II flux, using Bafilomycin AI (BafiAi; 2 μM) for inhibition of lysosomal degradation, directly corresponds to cellular autophagic activity. […] There is a concentration-dependent and significant increase in the autophagic-flux following application of ANAVEX2-73: an increase of over 2-fold at 10 μM and over 1.5-fold at 1 μM ANAVEX2-73 (FIG. 35A). As standard positive control to provoke the induction of autophagy, HeLa cells were incubated with EBSS, which resembles nutrient deprivation as autophagy stimulus.
Cell culture and microscopy. HeLa and HEK293A cells were cultured in DMEM (Invitrogen, Carlsbad, CA, USA, 41965062) supplemented with active FBS (Life Technologies GmbH, Carlsbad, CA, USA, 10270106), 1×ABAM (Invitrogen, 15240-062) and 1 mM sodium pyruvate (Invitrogen, 1136-088). After medium change, the cells were treated for 2 h with 10, 1, and 0.1 μM ANAVEX2-73 and PRE-084 (Tocris, Bristol, UK, 0589), respectively; ANAVEX2-73 was provided by ANAVEX Life Sciences Corp, New York, NY, USA. Afterwards Bafilomycin A1 (Bafi.Ai; 2 μM) (Toronto Research Chemicals, North York, ON, Canada, B110000) or DMSO was added for a further 2 h and the cells were eventually harvested. Western blot analyses were performed as described previously. Briefly, cells were subjected to SDS-PAGE using precast NuPAGE 4%-12% Bis-Tris gels (Invitrogen, NP0322). Proteins were detected by chemiluminescence using the Amersham Imager 600 (GE). Confocal fluorescence microscopical analyses of HEK293A cells stably expressing GFP-LC3B were performed with the laser scanning microscope LSM 710 (Zeiss, Oberkochen).

CN(C)CC1CCOC1(c1ccccc1)c1ccccc1.Cl (racemic) [Form VIII, tetrahydro-N,N-dimethyl-2,2-diphenyl-3-furanmethanamine hydrochloride]
form stability on drying ([1]; dried after isolation wet with water): once dried, it converts to Form I

CN(C)CC1CCOC1(c1ccccc1)c1ccccc1 (centres unmarked) [A2-73 dihydrogen phosphate Form I, tetrahydro-N,N-dimethyl-2,2-diphenyl-3-furanmethanamine]
solubility (Solubility at defined pH; pH 1.2, simulated gastric fluid, pH 1.2, read-out: solubility): ~47.2 mg/mL | solubility (Solubility at defined pH; pH 4.5): ~33.1 mg/mL | hygroscopicity [2]: hygroscopic | pH of a saturated solution [3]: 2.66

CN(C)CC1CCOC1(c1ccccc1)c1ccccc1 (centres unmarked) [A2-73 freebase Form I, tetrahydro-N,N-dimethyl-2,2-diphenyl-3-furanmethanamine]
water solubility (Solubility at defined pH; water): not highly water soluble | cognitive function (Alzheimer's disease; early onset Alzheimer's disease, patch 200 mg, 9 cm2, weekly, 180 days): stabilizes during that period with no additional loss detected | cognitive function (Alzheimer's disease; early signs of Alzheimer's disease, patch 100 mg, 4 cm2, every three days, 120 days): stabilizes during that period, with no additional loss detected | amount administered per day as revealed by blood levels ([4]; 50 mg enteric coated tablet every other day, 180 days): about 20 mg per day | blood levels maintained ([4]; transdermal patch 100 mg, 4 cm2, replaced approximately every three days, 120 days): about 10 ng/ml | blood levels maintained ([4]; transdermal patch 200 mg, 9 cm2, replaced weekly, 180 days): about 12 ng/ml | solubility ([5]; 1,4-dioxane, organic solvent or mixture): ≥ 200 mg/mL | solubility ([5]; 1-butanol, organic solvent or mixture): ≥ 200 mg/mL | solubility ([5]; 2-butanone, organic solvent or mixture): ≥ 200 mg/mL | solubility ([5]; N,N′-dimethylformamide, organic solvent or mixture): ≥ 200 mg/mL | solubility ([5]; acetone, organic solvent or mixture): ≥ 200 mg/mL | solubility in the solvents tested (summary) ([5]; all solvents of Table 10): high solubility in all solvents tested, except water | solubility ([5]; cyclohexane, organic solvent or mixture): ≥ 200 mg/mL | solubility ([5]; dimethyl sulfoxide, organic solvent or mixture): ≥ 200 mg/mL | solubility ([5]; heptane, organic solvent or mixture): ≥ 200 mg/mL | solubility ([5]; methyl acetate, organic solvent or mixture): ≥ 200 mg/mL | solubility ([5]; methyl isobutyl ketone, organic solvent or mixture): ≥ 200 mg/mL | solubility ([5]; nitromethane, organic solvent or mixture): ≥ 200 mg/mL | solubility ([5]; tetrahydrofuran, organic solvent or mixture): ≥ 200 mg/mL | solubility ([5]; water): < 5 mg/mL | hygroscopicity [2]: non-hygroscopic | water uptake (GVS) [2]: 0.3 % w/w | XRPD analysis post-GVS ([2]; post-GVS): no change in form | cognitive function ([6]; 50 mg enteric coated tablet every other day): stabilizes during that period with no additional loss detected

CN(C)CC1CCOC1(c1ccccc1)c1ccccc1.Cl (centres unmarked) [Form III, tetrahydro-N,N-dimethyl-2,2-diphenyl-3-furanmethanamine hydrochloride]
hygroscopicity ([2]; hydrochloride): slightly-hygroscopic

O=C(OCCN1CCOCC1)C1(c2ccccc2)CCCCC1 [PRE-084, 2-morpholin-4-ylethyl 1-phenylcyclohexane-1-carboxylate, reference compound]
ULK1 serine 555 phosphorylation (ULK1): up to 1.5 fold | increase in autophagic flux (LC3-II) (HeLa cells): over 1.5 fold

CN(C)CC1CCOC1(c1ccccc1)c1ccccc1 (centres unmarked) [ANAVEX2-73 fumarate, tetrahydro-N,N-dimethyl-2,2-diphenyl-3-furanmethanamine]
amount administered per day as revealed by blood levels ([4]; 30 mg enteric coated tablet every other day, 180 days): about 25 mg per day | cognitive function ([6]; 30 mg enteric coated tablet every other day): stabilizes during that period with no additional loss detected

CN(C)CC1CCOC1(c1ccccc1)c1ccccc1 (centres unmarked) [A2-73 sulfate Form II, tetrahydro-N,N-dimethyl-2,2-diphenyl-3-furanmethanamine]
form stability on storage ([1]; post-storage at 40° C./75% RH): metastable, converting to A2-73 sulfate Form I

CN(C)CC1CCOC1(c1ccccc1)c1ccccc1.Cl (centres unmarked) [Form II, tetrahydro-N,N-dimethyl-2,2-diphenyl-3-furanmethanamine hydrochloride]
hygroscopicity ([2]; hydrochloride): slightly hygroscopic

CN(C)CC1CCOC1(c1ccccc1)c1ccccc1 (centres unmarked) [A2-73 hydrogen fumarate Form III, tetrahydro-N,N-dimethyl-2,2-diphenyl-3-furanmethanamine]
solubility at GI pH (Solubility at defined pH; GI pH): lower solubility | solubility at gastric pH (Solubility at defined pH; gastric pH (generally about 1.5 to 3.5)): moderate solubility | solubility (Solubility at defined pH; pH 1.2): ca. 43.0 mg/mL | solubility (Solubility at defined pH; pH 4.5): ~4.1 mg/mL | solubility (Solubility at defined pH; pH 6.8, aqueous buffer, pH 6.8, read-out: solubility): ~12.6 mg/mL | hygroscopicity [2]: slightly hygroscopic | water uptake (GVS) [2]: ca. 0.9 % w/w | pH of a saturated solution [3]: 3.61
